Literature values, collected in US6783752B2, “Contrast agents” (Amersham Health AS, priority 1996, dated 2004).

Tests used:
[1] = in vivo
coronary blood flow = settings: in vivo

## Nc1ncnc2c1ncn2[C@@H]1O[C@H](CO)[C@@H](O)[C@H]1O [adenosine]
[1]
  blood pool half-life: 2 s
Coronary blood flow
  increase in coronary blood flow in healthy myocardial tissue: in excess of fourfold increases in coronary blood flow
